What was measured:
Assay in all cases: combination Emax (second highest fraction inhibited in the dose matrix, 72 h); higher = more inhibition; extreme values may be limits of the assay
[1] = tested on: WIL2-NS (Non-Cancerous)
In short: (§1)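 After 24 hours at 37°C and 5% CO2 in 1536-well plates, cells in DMEM/F12 or RPMI plus 10% FBS received two-drug dose matrices for 72 hours. Viability came from CellTiter-Glo 2.0 luminescence and was scaled as inhibition, anchored at 0 by vehicle wells and at 1 by blank wells. Combination Emax is taken as the second-highest inhibition in the matrix, and Bliss excess as the observed combination effect less EA + EB − EA·EB, with EA and EB the single-agent effects.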

[2] = tested on: CAMA-1 (Breast Carcinoma)
In short: as §1

[3] = tested on: BL-41 (Burkitt's Lymphoma)
In short: as §1

[4] = tested on: SW1417 (Colorectal Carcinoma)
In short: as §1

[5] = tested on: KYSE-180 (Esophageal Squamous Cell Carcinoma)
In short: as §1

[6] = tested on: DiFi (Colorectal Carcinoma)
In short: as §1

[7] = tested on: MEL-JUSO (Melanoma)
In short: as §1

[8] = tested on: HL-60 (Acute Myeloid Leukemia)
In short: as §1

[9] = tested on: LN-18 (Glioblastoma)
In short: as §1

[10] = tested on: KM12 (Colorectal Carcinoma)
In short: as §1

[11] = tested on: BFTC-905 (Bladder Carcinoma)
In short: as §1

[12] = tested on: MOLT-16 (T-Lymphoblastic Leukemia)
In short: as §1

[13] = tested on: U251 (Low Grade Glioma)
In short: as §1

[14] = tested on: ES8 (Ewing's Sarcoma)
In short: as §1

[15] = tested on: P12-ICHIKAWA (T-Lymphoblastic Leukemia)
In short: as §1

[16] = tested on: EVSA-T (Breast Carcinoma)
In short: as §1

[17] = tested on: SW837 (Colorectal Carcinoma)
In short: as §1

[18] = tested on: COLO-678 (Colorectal Carcinoma)
In short: as §1

[19] = tested on: TOV-112D (Ovarian Carcinoma)
In short: as §1

[20] = tested on: TE-6 (Esophageal Squamous Cell Carcinoma)
In short: as §1

| SMILES | combination Emax [1] | combination Emax [2] | combination Emax [3] | combination Emax [4] | combination Emax [5] | combination Emax [6] | combination Emax [7] | combination Emax [8] | combination Emax [9] | combination Emax [10] | combination Emax [11] | combination Emax [12] | combination Emax [13] | combination Emax [14] | combination Emax [15] | combination Emax [16] | combination Emax [17] | combination Emax [18] | combination Emax [19] | combination Emax [20] |
| --- | --- | --- | --- | --- | --- | --- | --- | --- | --- | --- | --- | --- | --- | --- | --- | --- | --- | --- | --- | --- |
| C[C@@H](c1ccc2nccn2c1)n1nnc2ncc(-c3cnn(C)c3)nc21 [Savolitinib] + Cc1c2c(nn1C)CSCc1cc(n(C)n1)CSc1cc(c3ccccc3c1)OCCCc1c(C(=O)O)n(C)c3c-2c(Cl)ccc13 [AZD5991] (first compound max 1 µM, 7x7, partner max 1 µM) | 0.0914 | 0.494 | 1 | 0.161 | 0.278 | 0.257 | 0.183 | 1 | 0.202 | 0.159 | 0.191 | 1 | 0.217 | 0.292 | 0.29 | 1 | 0.124 | 0.161 | 0.395 | 0.308 |
| Cn1cnc2c(F)c(Nc3ccc(Br)cc3Cl)c(C(=O)NOCCO)cc21 [Selumetinib] + C=CCn1c(=O)c2cnc(Nc3ccc(N4CCN(C)CC4)cc3)nc2n1-c1cccc(C(C)(C)O)n1 [AZD1775] (first compound max 10 µM, partner max 1 µM) | 0.937 | 0.148 | 1 | 0.704 | 0.544 | 0.849 | 0.604 | 0.712 | 0.461 | 0.884 | 0.665 | 1 | 0.326 | 0.491 | 1 | 0.156 | 0.549 | 0.52 | 0.48 | 0.506 |
| Cn1cnc2c(F)c(Nc3ccc(Br)cc3Cl)c(C(=O)NOCCO)cc21 [Selumetinib] + CC(C)n1c(=O)n(C)c2cnc3cc(F)c(-c4ccc(OCCCN5CCCCC5)nc4)cc3c21 [AZD1390] (first compound max 10 µM, 7x7, partner max 0.3 µM) | 0.252 | 0.0892 | 0.209 | 0.437 | 0.0295 | 0.641 | 0.349 | 0.743 | 0.157 | 0.657 | 0.606 | 0.277 | 0.141 | 0.263 | 0.305 | 0.174 | 0.567 | 0.502 | 0.138 | 0.388 |
| Cn1cnc2c(F)c(Nc3ccc(Br)cc3Cl)c(C(=O)NOCCO)cc21 [Selumetinib] + CCN(CCO)CCCOc1ccc2c(Nc3cc(CC(=O)Nc4cccc(F)c4)[nH]n3)ncnc2c1 [AZD2811] (first compound max 10 µM, 7x7, partner max 1 µM) | 0.259 | 0.22 | 0.629 | 0.559 | 0.103 | 0.813 | 0.427 | 0.918 | 0.34 | 0.676 | 0.781 | 1 | 0.268 | 0.996 | 1 | 0.283 | 0.554 | 0.51 | 0.349 | 0.353 |
| Cn1cnc2c(F)c(Nc3ccc(Br)cc3Cl)c(C(=O)NOCCO)cc21 [Selumetinib] + C[C@@H]1COCCN1C2=NC(=NC(=C2)C3(CC3)[S@](=N)(=O)C)C4=C5C=CNC5=NC=C4 [AZD6738] (first compound max 10 µM, 7x7, partner max 10 µM) | 0.922 | 0.319 | 0.989 | 0.583 | 0.393 | 0.844 | 0.509 | 0.819 | 0.71 | 0.825 | 0.784 | 1 | 0.443 | 0.674 | 0.988 | 0.222 | 0.544 | 0.466 | 0.657 | 0.671 |
| CC(=O)Nc1cccc(-n2c(=O)n(C3CC3)c(=O)c3c(Nc4ccc(I)cc4F)n(C)c(=O)c(C)c32)c1 [Trametinib] + Cc1nc(-c2cn3c(n2)-c2ccc(-c4cnn(C(C)(C)C(N)=O)c4)cc2OCC3)n(C(C)C)n1 [Taselisib] (first compound max 1 µM, 7x7, partner max 10 µM) | 0.723 | 0.491 | 0.319 | 0.775 | 0.638 | 1 | 0.863 | 0.958 | 0.847 | 0.84 | 1 | 0.776 | 0.848 | 0.844 | 0.658 | 0.947 | 0.738 | 0.608 | 0.641 | 0.908 |
| CC1(C)CCC(CN2CCN(c3ccc(C(=O)NS(=O)(=O)c4ccc(NCC5CCOCC5)c([N+](=O)[O-])c4)c(Oc4cnc5[nH]ccc5c4)c3)CC2)=C(c2ccc(Cl)cc2)C1 [Venetoclax] + C1CN(CCC1(C(=O)N[C@@H](CCO)C2=CC=C(C=C2)Cl)N)C3=NC=NC4=C3C=CN4 [Capivasertib] (first compound max 1 µM, 7x7, partner max 3 µM) | 0.912 | 0.63 | 0.252 | 0.193 | 0.312 | 0.34 | 0.204 | 0.781 | 0.365 | 0.501 | 0.193 | 1 | 0.303 | 0.532 | 0.49 | 0.855 | 0.127 | 0.0815 | 0.0882 | 0.503 |
| CC1(C)CCC(CN2CCN(c3ccc(C(=O)NS(=O)(=O)c4ccc(NCC5CCOCC5)c([N+](=O)[O-])c4)c(Oc4cnc5[nH]ccc5c4)c3)CC2)=C(c2ccc(Cl)cc2)C1 [Venetoclax] + C=CCn1c(=O)c2cnc(Nc3ccc(N4CCN(C)CC4)cc3)nc2n1-c1cccc(C(C)(C)O)n1 [AZD1775] (first compound max 1 µM, partner max 1 µM) | 0.99 | 0.38 | 1 | 0.505 | 0.739 | 0.674 | 0.521 | 0.899 | 0.555 | 0.781 | 0.799 | 1 | 0.297 | 0.94 | 0.966 | 0.329 | 0.453 | 0.328 | 0.393 | 0.497 |
| CC1(C)CCC(CN2CCN(c3ccc(C(=O)NS(=O)(=O)c4ccc(NCC5CCOCC5)c([N+](=O)[O-])c4)c(Oc4cnc5[nH]ccc5c4)c3)CC2)=C(c2ccc(Cl)cc2)C1 [Venetoclax] + CCN(CCO)CCCOc1ccc2c(Nc3cc(CC(=O)Nc4cccc(F)c4)[nH]n3)ncnc2c1 [AZD2811] (first compound max 1 µM, 7x7, partner max 1 µM) | 0.857 | 0.224 | 0.604 | 0.209 | 0.233 | 0.486 | 0.287 | 0.918 | 0.488 | 0.17 | 0.354 | 1 | 0.274 | 1 | 1 | 0.427 | 0.2 | 0.245 | 0.266 | 0.26 |
| CC1(C)CCC(CN2CCN(c3ccc(C(=O)NS(=O)(=O)c4ccc(NCC5CCOCC5)c([N+](=O)[O-])c4)c(Oc4cnc5[nH]ccc5c4)c3)CC2)=C(c2ccc(Cl)cc2)C1 [Venetoclax] + CN(C)CCCOc1ccc(-c2ccc3ncc4c(c3c2)n(C2CCOCC2)c(=O)n4C)cn1 [AZD0156] (first compound max 1 µM, 7x7, partner max 1 µM) | 0.804 | 0.145 | 0.163 | 0.266 | 0.155 | 0.288 | 0.233 | 0.71 | 0.329 | 0.17 | 0.588 | 0.699 | 0.227 | 0.869 | 0.224 | 0.213 | 0.145 | 0.187 | 0.131 | 0.289 |
| CC1(C)CCC(CN2CCN(c3ccc(C(=O)NS(=O)(=O)c4ccc(NCC5CCOCC5)c([N+](=O)[O-])c4)c(Oc4cnc5[nH]ccc5c4)c3)CC2)=C(c2ccc(Cl)cc2)C1 [Venetoclax] + COc1cc(Nc2ncc3c(n2)-c2ccc(Cl)cc2C(c2c(F)cccc2OC)=NC3)ccc1C(=O)O [Alisertib] (first compound max 1 µM, 7x7, partner max 10 µM) | 0.825 | 0.341 | 0.978 | 0.235 | 0.377 | 0.559 | 0.301 | 0.923 | 0.787 | 0.598 | 0.671 | 1 | 0.49 | 0.962 | 0.953 | 0.598 | 0.308 | 0.181 | 0.684 | 0.527 |
| CC1(C)CCC(CN2CCN(c3ccc(C(=O)NS(=O)(=O)c4ccc(NCC5CCOCC5)c([N+](=O)[O-])c4)c(Oc4cnc5[nH]ccc5c4)c3)CC2)=C(c2ccc(Cl)cc2)C1 [Venetoclax] + C[C@@H]1COCCN1C2=NC(=NC(=C2)C3(CC3)[S@](=N)(=O)C)C4=C5C=CNC5=NC=C4 [AZD6738] (first compound max 1 µM, 7x7, partner max 10 µM) | 0.997 | 0.41 | 0.999 | 0.391 | 0.638 | 0.81 | 0.483 | 0.933 | 0.745 | 0.641 | 0.835 | 1 | 0.518 | 0.934 | 0.986 | 0.378 | 0.348 | 0.164 | 0.656 | 0.67 |
